{"source": "patent EP3265461B1", "about": "“VERBASCOSIDE DERIVATIVES” (Croda Italiana S.p.A., priority 2015, dated 2016)", "key": {"[1]": {"tested_on": "platelet aggregation (PA)", "assay": "Phase II study: arachidonic acid-induced platelet aggregation by light transmission aggregometry", "type": "in vivo, human", "conditions": "platelets stimulated with 1 µM AA", "protocol": "(§1) A randomized, double-blind Phase II study was conducted to evaluate verbascoside activity in modulating the platelet aggregation (PA) values on subjects with at least one cardiovascular risk factor, selected from: age over 65 years, diabetes mellitus, hypertension, smoke, hyperlipidemia, waist circumference greater than 102 cm in men or 88 cm in women. Patients under pharmacological treatment with platelet antiaggregants (aspirin, clopidogrel, ticlopidine, prasugrel, ticagrelor), with anticoagulants (e.g. warfarin) or with oral contraceptives, were excluded. Other exclusion criteria were: events of myocardial infarction, coronary revascularization (percutaneous or surgical), infarction, temporary ischemic attack, peripheral vascular pathology, and the consumption of corticosteroids and/or non-steroidal anti-inflammatory drugs in the last month.\n(§2) The experimentation was conducted on 100 subjects. […]\n(§3) PA was determined by means of light transmission aggregometry according to standard protocols. […] The aggregation was measured at 37°C with a PACKS-4 aggregometer (Helena Laboratories). The curves were recorded for 6 min. The aggregation was measured at a maximum aggregation (maximum PA) and at 5 min (delayed PA). […]"}, "[2]": {"assay": "Oxidation stability as antioxidant power against the DPPH radical", "type": "physicochemical", "conditions": "100 µM DPPH in methanol, 15 min in the dark at room temperature, 515 nm", "protocol": "The oxidation stability of the compounds of formula (I) was evaluated as a function of their antioxidant power, determined as the reactivity of the compound against the stable radical 2,2-diphenyl-1-picrylhydrazyl (DPPH) in solution. High reactivity means poor stability under oxidizing conditions.\nA 100 µM solution of DPPH in methanol, prepared from a 1 mM solution, then diluted at 1:10 was used for the determination.\nThe following final dilutions (from a solution in methanol having a double concentration) of the compound of formula (I) to be analyzed were prepared: 500 µg/mL, 100 µg/mL, 50 µg/mL, 10 µg/mL, 5 µg/mL, 2.5 µg/mL, 1 µg/mL, 0.5 µg/mL, 0.1 µg/mL, 0.05 µg/mL, 0 µg/mL.\n500 µl of the compound to be tested at a certain concentration and 500 µl of DPPH were placed in a cuvette, they were all mixed and incubated in the dark at room temperature for 15 min.\nThe solution was analyzed with a spectrophotometer at a wavelength of 515 nm (methanol as white).\nThe color in the cuvettes varies from violet (DPPH without compound of formula (I)) to straw-yellow (DPPH with maximum inhibitory concentration of the compound of formula (I)).\nThe percent inhibition of the radical reaction is defined as: [(Absmax(DPPHalone)−Abs(DPPH+compound))/Absmax] × 100. [formula] […]"}, "[3]": {"tested_on": "platelet aggregation (PA)", "assay": "Phase II study: ADP-induced platelet aggregation by light transmission aggregometry", "type": "in vivo, human", "conditions": "platelets stimulated with 5 µM ADP", "protocol": "as §1, §2, §3"}, "[4]": {"assay": "Stability in fed intestinal fluid (FESSIF), HPLC", "type": "in vitro ADME", "conditions": "fed-state simulated intestinal fluid (FESSIF), pH=5, read-out: FESSIF t1/2", "protocol": "(§4) The stability of the compounds of formula (I) was measured under physiological conditions.\n(§5) The stability measurement was conducted by means of analytic HPLC techniques with a UV detector at 330 nm. The half-life is reported (in hours)."}, "[5]": {"assay": "Stability in fasted intestinal fluid (FASSIF), HPLC", "type": "in vitro ADME", "conditions": "pH=6.5", "protocol": "as §4, §5"}, "[6]": {"assay": "Metabolism in human liver", "type": "in vitro ADME", "from_the_text": "Moreover, it has also been determined that the derivatives (B), (C) and (D) are metabolized in human liver, whereas verbascoside (derivative (A)) is stable."}, "[7]": {"assay": "Stability in gastric fluids (SGF), HPLC", "type": "in vitro ADME", "conditions": "pH=1.6", "protocol": "as §4, §5"}, "[8]": {"assay": "Stability in blood, HPLC", "type": "in vitro ADME", "protocol": "as §4, §5"}}, "data": [{"smiles": "C[C@@H]1O[C@@H](O[C@@H]2[C@@H](O)[C@H](OCCc3ccc(O)c(O)c3)O[C@H](CO)[C@H]2OC(=O)/C=C/c2ccc(O)c(O)c2)[C@H](O)[C@H](O)[C@H]1O", "note": "[(A), Verbascoside]", "values": [{"measurement": "Arachidonic acid-induced maximum PA", "setting": "[1]; after 2 weeks of 50 mg/day, time 0 value 50±9%, p=0.4", "value": "48±10", "unit": "%"}, {"measurement": "Arachidonic acid-induced maximum PA", "setting": "[1]; after 2 weeks of 100 mg/day, time 0 value 51±13%, p<0.01", "value": "39±15", "unit": "%"}, {"measurement": "Inhibitory activity (IC50)", "setting": "[2]", "value": 2, "unit": "µg/mL"}, {"measurement": "ADP-induced maximum PA", "setting": "[3]; after 2 weeks of 50 mg/day, time 0 value 58±8%, p=0.5", "value": "56±9", "unit": "%"}, {"measurement": "ADP-induced maximum PA", "setting": "[3]; after 2 weeks of 100 mg/day, time 0 value 60±12%, p<0.01", "value": "49±15", "unit": "%"}, {"measurement": "half-life", "setting": "[4]", "value": "> 24", "unit": "h"}, {"measurement": "FASSIF t1/2", "setting": "[5]", "value": "stable"}, {"measurement": "metabolized in human liver", "setting": "[6]", "value": "stable"}, {"measurement": "SGF t1/2", "setting": "[7]", "value": "STABLE"}, {"measurement": "Blood t1/2", "setting": "[8]", "value": "stable"}]}]}
